Experimental data from patent publication US11434242B2, “Dopamine-b-hydroxylase inhibitors” (BIAL-PORTELA & Cª, S.A., priority 2017, dated 2022).

Target: T1, Dopamine beta hydroxylase (Homo sapiens, UniProt P09172)
T1 construct: 125 μl of plasma; tissue Instituto Português do Sangue Transplantação; host or cells: human plasma from healthy donors
T1 sequence (P09172 40-617 limits assumed): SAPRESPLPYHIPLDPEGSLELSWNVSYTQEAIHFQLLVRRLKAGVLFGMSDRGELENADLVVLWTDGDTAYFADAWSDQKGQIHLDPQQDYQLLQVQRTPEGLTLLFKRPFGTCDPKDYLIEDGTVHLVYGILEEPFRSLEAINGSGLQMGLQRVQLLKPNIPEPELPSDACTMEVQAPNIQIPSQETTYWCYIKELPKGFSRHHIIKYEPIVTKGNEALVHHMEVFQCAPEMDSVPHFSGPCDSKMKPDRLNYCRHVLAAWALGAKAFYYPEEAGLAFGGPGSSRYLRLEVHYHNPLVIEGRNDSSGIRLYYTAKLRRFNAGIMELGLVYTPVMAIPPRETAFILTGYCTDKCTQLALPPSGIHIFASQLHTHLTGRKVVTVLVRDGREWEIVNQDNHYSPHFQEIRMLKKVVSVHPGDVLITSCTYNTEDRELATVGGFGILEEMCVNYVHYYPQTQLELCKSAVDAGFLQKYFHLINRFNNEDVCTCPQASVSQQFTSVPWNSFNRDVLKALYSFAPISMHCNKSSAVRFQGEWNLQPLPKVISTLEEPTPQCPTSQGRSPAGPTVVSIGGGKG
Assay: Dopamine beta hydroxylase activity in human plasma
Format: biochemical
Details: for Plasma (0.01 μM), activity in % of control: inhibitor 0.01 μM; for Plasma (0.1 μM), activity in % of control: inhibitor 0.1 μM
In short: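 Octopamine production from tyramine over 45 min at 37° C, measured photometrically at 330 nm after SCX extraction and periodate oxidation against an octopamine standard curve, indicates plasma DβH activity. Compounds tested at final 10, 100 and 1000 nM in human plasma, pH 5.0 cofactor buffer, 10 min preincubation; results as % of control.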

SMILES	Plasma (0.01 μM), activity in % of control	Plasma (0.1 μM), activity in % of control
O=C(Cc1[nH]c(=S)n2c1C[C@H](c1c(F)ccc(Br)c1F)C2)NC1CCS(=O)(=O)CC1 [Example 130, (R)-2-(6-(3-bromo-2,6-difluorophenyl)-3-thioxo-2,5,6,7-tetrahydro-3H-pyrrolo[1,2-c]imidazol-1-yl)-N-(1,1-dioxidotetrahydro-2H-thiopyran-4-yl)acetamide]	55.7 % of control	8.4 % of control
CN(CCO)C(=O)Cc1[nH]c(=S)n2c1C[C@H](c1c(F)ccc(Br)c1F)C2 [Example 131, (R)-2-(6-(3-bromo-2,6-difluorophenyl)-3-thioxo-2,5,6,7-tetrahydro-3H-pyrrolo[1,2-c]imidazol-1-yl)-N-(2-hydroxyethyl)-N-methylacetamide]	89.8 % of control	50.5 % of control
CN(C(=O)Cc1[nH]c(=S)n2c1C[C@H](c1c(F)ccc(Br)c1F)C2)C1CCCCC1 [Example 132, (R)-2-(6-(3-bromo-2,6-difluorophenyl)-3-thioxo-2,5,6,7-tetrahydro-3H-pyrrolo[1,2-c]imidazol-1-yl)-N-cyclohexyl-N-methylacetamide]	91.9 % of control	62.3 % of control
CC(C)NC(=O)Cc1[nH]c(=S)n2c1C[C@H](c1c(F)ccc(Br)c1F)C2 [Example 133, (R)-2-(6-(3-bromo-2,6-difluorophenyl)-3-thioxo-2,5,6,7-tetrahydro-3H-pyrrolo[1,2-c]imidazol-1-yl)-N-isopropylacetamide]	95.9 % of control	82.4 % of control
CN(Cc1cccnc1)C(=O)Cc1[nH]c(=S)n2c1C[C@@H](c1c(F)ccc(Cl)c1F)C2 [Example 134, (S)-2-(6-(3-chloro-2,6-difluorophenyl)-3-thioxo-2,5,6,7-tetrahydro-3H-pyrrolo[1,2-c]imidazol-1-yl)-N-methyl-N-(pyridin-3-ylmethyl)acetamide]	24.9 % of control	3.2 % of control
CS(=O)(=O)C1CCN(C(=O)Cc2[nH]c(=S)n3c2C[C@H](c2c(F)ccc(Br)c2F)C3)C1 (stereo partly drawn) [Example 135, 2-((R)-6-(3-bromo-2,6-difluorophenyl)-3-thioxo-2,5,6,7-tetrahydro-3H-pyrrolo[1,2-c]imidazol-1-yl)-1-(3-(methylsulfonyl)pyrrolidin-1-yl)ethan-1-one]	88.3 % of control	58.1 % of control
O=C(Cc1[nH]c(=S)n2c1C[C@@H](c1c(F)ccc(Br)c1F)C2)N1CCS(=O)(=O)CC1 [Example 136, (S)-2-(6-(3-bromo-2,6-difluorophenyl)-3-thioxo-2,5,6,7-tetrahydro-3H-pyrrolo[1,2-c]imidazol-1-yl)-1-(1,1-dioxidothiomorpholino)ethan-1-one]	44.3 % of control	6.8 % of control
O=C(Cc1[nH]c(=S)n2c1C[C@@H](c1c(F)ccc(Br)c1F)C2)N1CCSCC1 [Example 137, (S)-2-(6-(3-bromo-2,6-difluorophenyl)-3-thioxo-2,5,6,7-tetrahydro-3H-pyrrolo[1,2-c]imidazol-1-yl)-1-thiomorpholinoethan-1-one]	72.9 % of control	21.5 % of control
O=C(Cc1[nH]c(=S)n2c1C[C@@H](c1c(F)ccc(Br)c1F)C2)N1CCC2(CCOC2)C1 (stereo partly drawn) [Example 138, 2-((S)-6-(3-bromo-2,6-difluorophenyl)-3-thioxo-2,5,6,7-tetrahydro-3H-pyrrolo[1,2-c]imidazol-1-yl)-1-(2-oxa-7-azaspiro[4.4]nonan-7-yl)ethan-1-one]	46.6 % of control	5.0 % of control
